Results on 28 compounds are retold here after patent US9376436B2, “2-(pyridin-2yl)-1, 7-diaza-spiro [4.4] nonane-6-one compound as voltage-gated sodium channels modulators” (CONVERGENCE PHARMACEUTICALS LIMITED, priority 2011, dated 2016).

The target in the experiment is T1, hNaV1.7 (Homo sapiens, UniProt Q15858).
T1 construct: expressed in transfected cells; host or cells: HEK293
As to the kind of experiment: QPatch NaV1.7 assay (whole-cell patch clamp, QPatch16x). It is filed as cell-based. As to conditions: HEK293-hNaV1.7 cells. In outline: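 Automated whole-cell recordings in hNaV1.7-expressing HEK293 cells, holding at either −90 mV (mostly closed channels) or the half-inactivation voltage. Compounds applied cumulatively at four concentrations for 120 s each; peak current on 20 ms depolarisation to 0 mV fitted by Hill equation to yield pIC50.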

Setting [1] is: holding voltage V1/2 SSI (half of channels inactivated), read-out: QP Nav1.7 SSI vhalf pIC50 (converted).
Setting [2] is: holding voltage −90 mV (most channels closed), read-out: QP Nav1.7 −90 mV pIC50 (converted).

Counter-ions that a name gives are not always drawn. Like-named read-outs stand apart in the source and are kept apart here.

T1 sequence (Q15858 whole entry): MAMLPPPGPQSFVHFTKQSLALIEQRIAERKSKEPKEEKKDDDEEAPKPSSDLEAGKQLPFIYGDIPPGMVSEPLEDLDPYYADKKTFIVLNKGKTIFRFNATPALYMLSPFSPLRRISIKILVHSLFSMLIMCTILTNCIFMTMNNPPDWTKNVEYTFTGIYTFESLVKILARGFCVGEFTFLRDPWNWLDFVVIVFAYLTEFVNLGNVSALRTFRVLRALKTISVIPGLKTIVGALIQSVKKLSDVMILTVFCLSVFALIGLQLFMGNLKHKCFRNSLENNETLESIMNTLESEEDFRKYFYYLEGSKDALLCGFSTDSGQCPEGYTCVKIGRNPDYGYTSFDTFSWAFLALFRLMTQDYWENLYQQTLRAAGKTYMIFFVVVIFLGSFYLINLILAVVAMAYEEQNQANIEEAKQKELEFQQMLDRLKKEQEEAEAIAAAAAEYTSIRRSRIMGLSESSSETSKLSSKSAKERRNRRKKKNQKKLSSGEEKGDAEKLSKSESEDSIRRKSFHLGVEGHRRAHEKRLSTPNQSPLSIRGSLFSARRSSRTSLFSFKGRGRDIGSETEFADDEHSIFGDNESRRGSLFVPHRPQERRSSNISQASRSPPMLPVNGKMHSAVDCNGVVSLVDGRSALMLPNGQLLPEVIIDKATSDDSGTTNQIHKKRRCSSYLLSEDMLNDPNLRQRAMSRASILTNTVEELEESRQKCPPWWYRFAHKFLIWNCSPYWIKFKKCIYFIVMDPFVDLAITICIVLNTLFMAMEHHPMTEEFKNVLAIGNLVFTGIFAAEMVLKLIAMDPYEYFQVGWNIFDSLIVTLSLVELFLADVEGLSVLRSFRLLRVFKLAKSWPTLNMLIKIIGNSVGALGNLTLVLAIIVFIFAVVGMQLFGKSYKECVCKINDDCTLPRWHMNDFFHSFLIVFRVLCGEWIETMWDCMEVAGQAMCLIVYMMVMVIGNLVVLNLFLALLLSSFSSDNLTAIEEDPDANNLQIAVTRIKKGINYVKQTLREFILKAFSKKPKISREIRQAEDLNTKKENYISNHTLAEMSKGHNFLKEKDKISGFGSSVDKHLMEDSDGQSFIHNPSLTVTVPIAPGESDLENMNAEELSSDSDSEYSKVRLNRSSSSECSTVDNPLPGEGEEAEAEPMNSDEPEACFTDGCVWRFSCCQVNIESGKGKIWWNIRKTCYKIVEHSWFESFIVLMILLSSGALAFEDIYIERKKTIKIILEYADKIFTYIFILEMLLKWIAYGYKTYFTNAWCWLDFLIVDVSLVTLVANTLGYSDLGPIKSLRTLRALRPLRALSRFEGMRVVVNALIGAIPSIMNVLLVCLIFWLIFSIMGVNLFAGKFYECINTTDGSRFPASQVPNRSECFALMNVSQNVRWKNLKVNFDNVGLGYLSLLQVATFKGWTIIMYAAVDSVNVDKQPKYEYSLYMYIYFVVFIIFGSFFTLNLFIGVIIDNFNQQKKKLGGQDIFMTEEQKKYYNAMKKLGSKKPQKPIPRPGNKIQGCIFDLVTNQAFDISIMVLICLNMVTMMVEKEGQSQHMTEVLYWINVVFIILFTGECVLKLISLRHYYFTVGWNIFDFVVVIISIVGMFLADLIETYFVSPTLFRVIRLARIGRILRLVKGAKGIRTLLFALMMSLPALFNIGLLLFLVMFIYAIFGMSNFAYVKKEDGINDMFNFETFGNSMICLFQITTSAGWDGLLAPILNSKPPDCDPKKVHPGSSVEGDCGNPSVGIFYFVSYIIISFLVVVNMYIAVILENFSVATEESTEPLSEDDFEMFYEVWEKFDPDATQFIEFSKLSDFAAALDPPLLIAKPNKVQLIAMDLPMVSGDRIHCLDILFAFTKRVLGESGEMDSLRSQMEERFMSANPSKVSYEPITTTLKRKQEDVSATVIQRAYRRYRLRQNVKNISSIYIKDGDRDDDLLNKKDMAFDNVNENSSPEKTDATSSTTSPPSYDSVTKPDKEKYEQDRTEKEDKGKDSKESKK

Take `CN1CCC[C@]2(CC[C@@H](c3cc(-c4ccc(C(F)(F)F)cc4)ccn3)N2)C1=O` [Example 69, (2S,5S)-7-Methyl-2-[4-(4-trifluoromethyl-phenyl)-pyridin-2-yl]-1,7-diaza-spiro[4.5]decan-6-one hydrochloride]: the IC50 under setting [1] was 7.94 µM and the IC50 under setting [2] was 31.6 µM.

For `CN1CCC[C@]2(CC[C@H](c3cc(-c4ccc(C(F)(F)F)cc4)ccn3)N2)C1=O` [Example 70, (2R,5S)-7-Methyl-2-[4-(4-trifluoromethyl-phenyl)-pyridin-2-yl]-1,7-diaza-spiro[4.5]decan-6-one hydrochloride], the IC50 under setting [1] was 1 µM and the IC50 under setting [2] is 12.6 µM.

With `CN1CCC[C@@]2(CC[C@H](c3cc(-c4ccc(F)cc4)ccn3)N2)C1=O` [Example 71, (2R,5R)-2-[4-(4-Fluoro-phenyl)-pyridin-2-yl]-7-methyl-1,7-diaza-spiro[4.5]decan-6-one hydrochloride], the IC50 was 20 µM under setting [1] and 126 µM under setting [2].

`CN1CCC[C@@]2(CC[C@@H](c3cc(-c4ccc(F)cc4)ccn3)N2)C1=O` [Example 72, (2S,5R)-2-[4-(4-Fluoro-phenyl)-pyridin-2-yl]-7-methyl-1,7-diaza-spiro[4.5]decan-6-one hydrochloride]: the IC50 runs as follows: under setting [1], 20 µM; under setting [2], 158 µM.

On to `CN1CCC[C@]2(CC[C@@H](c3cc(-c4ccc(F)cc4)ccn3)N2)C1=O` [Example 73, (2S,5S)-2-[4-(4-Fluoro-phenyl)-pyridin-2-yl]-7-methyl-1,7-diaza-spiro[4.5]decan-6-one hydrochloride], for which the IC50 under setting [1] is 20 µM and the IC50 under setting [2] was 200 µM.

With `CN1CCC[C@]2(CC[C@H](c3cc(-c4ccc(F)cc4)ccn3)N2)C1=O` [Example 74, (2R,5S)-2-[4-(4-Fluoro-phenyl)-pyridin-2-yl]-7-methyl-1,7-diaza-spiro[4.5]decan-6-one hydrochloride], the IC50 is, setting by setting: under setting [1], 7.94 µM; under setting [2], 63.1 µM.

With `CN1CC[C@@]2(CC[C@H](c3cc(-c4cccc(C(F)(F)F)c4)ccn3)N2)C1=O` [Example 75, (2R,5S)-7-Methyl-2-[4-[3-(trifluoromethyl)phenyl]-2-pyridyl]-1,7-diazaspiro[4.4]nonan-6-one hydrochloride], the IC50 was 20 µM under setting [1] and 126 µM under setting [2].

`CCOc1ccc(-c2ccnc([C@H]3CC[C@@]4(CCN(C)C4=O)N3)c2)cc1` [Example 76, (2R,5S)-2-[4-(4-Ethoxyphenyl)-2-pyridyl]-7-methyl-1,7-diazaspiro[4.4]nonan-6-one hydrochloride]: the IC50 runs as follows: under setting [1], 3.98 µM; under setting [2], 63.1 µM.

With `CN1CC[C@@]2(CC[C@H](c3cc(-c4cc(F)cc(F)c4)ccn3)N2)C1=O` [Example 77, (2R,5S)-2-[4-(3,5-Difluorophenyl)-2-pyridyl]-7-methyl-1,7-diazaspiro[4.4]nonan-6-one hydrochloride], the IC50 is 31.6 µM under setting [1] and 316 µM under setting [2].

In the case of `Cc1cscc1-c1ccnc([C@H]2CC[C@@]3(CCN(C)C3=O)N2)c1` [Example 78, (2R,5S)-7-Methyl-2-[4-(4-methyl-3-thienyl)-2-pyridyl]-1,7-diazaspiro[4.4]nonan-6-one hydrochloride], the IC50 was 12.6 µM under setting [1] and 158 µM under setting [2].

Regarding `CN1CC[C@@]2(CC[C@H](c3cc(-c4ccc5c(ccn5C)c4)ccn3)N2)C1=O` [Example 79, (2R,5S)-7-Methyl-2-[4-(1-methylindol-5-yl)-2-pyridyl]-1,7-diazaspiro[4.4]nonan-6-one hydrochloride], the IC50 runs as follows: under setting [1], 31.6 µM; under setting [2], 398 µM.

Consider `COc1cccc(-c2ccnc([C@H]3CC[C@@]4(CCN(C)C4=O)N3)c2)c1Cl` [Example 80, (2R,5S)-2-[4-(2-Chloro-3-methoxy-phenyl)-2-pyridyl]-7-methyl-1,7-diazaspiro[4.4]nonan-6-one hydrochloride], for which the IC50 under setting [1] is 200 µM and the IC50 under setting [2] is 316 µM.

Regarding `CN1CC[C@@]2(CC[C@H](c3cc(-c4cccc5c4OC(F)(F)O5)ccn3)N2)C1=O` [Example 81, (2R,5S)-2-[4-(2,2-Difluoro-1,3-benzodioxol-4-yl)-2-pyridyl]-7-methyl-1,7-diazaspiro[4.4]nonan-6-one hydrochloride], the IC50 was 3.16 µM under setting [1] and 200 µM under setting [2].

Take `CCOc1cccc(-c2ccnc([C@H]3CC[C@@]4(CCN(C)C4=O)N3)c2)c1` [Example 82, (2R,5S)-2-[4-(3-Ethoxyphenyl)-2-pyridyl]-7-methyl-1,7-diazaspiro[4.4]nonan-6-one hydrochloride]: the IC50 was 7.94 µM under setting [1] and 200 µM under setting [2].

As for `COc1ccc(Cl)c(-c2ccnc([C@H]3CC[C@@]4(CCN(C)C4=O)N3)c2)c1` [Example 83, (2R,5S)-2-[4-(2-Chloro-5-methoxy-phenyl)-2-pyridyl]-7-methyl-1,7-diazaspiro[4.4]nonan-6-one hydrochloride], the IC50 by setting is: under setting [1], 31.6 µM; under setting [2], 200 µM.

Regarding `CN1CC[C@@]2(CC[C@H](c3cc(-c4cc(OC(F)F)ccc4F)ccn3)N2)C1=O` [Example 84, (2R,5S)-2-[4-[5-(Difluoromethoxy)-2-fluoro-phenyl]-2-pyridyl]-7-methyl-1,7-diazaspiro[4.4]nonan-6-one hydrochloride], the IC50 by setting is: under setting [1], 20 µM; under setting [2], 200 µM.

For `Cc1cc(-c2ccc(OC(C)C)cc2)cc([C@H]2CC[C@@]3(CCN(C)C3=O)N2)n1` [Example 85, (2R,5S)-2-[4-(4-Isopropoxyphenyl)-6-methyl-2-pyridyl]-7-methyl-1,7-diazaspiro[4.4]nonan-6-one hydrochloride], the IC50 by setting is: under setting [1], 0.316 µM; under setting [2], 10 µM.

As for `Cc1cc(-c2ccc(OC(C)C)cc2)cc([C@@H]2CC[C@@]3(CCN(C)C3=O)N2)n1` [Example 86, (2S,5S)-2-[4-(4-Isopropoxyphenyl)-6-methyl-2-pyridyl]-7-methyl-1,7-diazaspiro[4.4]nonan-6-one hydrochloride], the IC50 by setting is: under setting [1], 10 µM; under setting [2], 100 µM.

On to `Cc1ccc(-c2cc(C)nc([C@H]3CC[C@@]4(CCN(C)C4=O)N3)c2)cc1` [Example 87, (2R,5S)-7-Methyl-2-[6-methyl-4-(p-tolyl)-2-pyridyl]-1,7-diazaspiro[4.4]nonan-6-one hydrochloride], for which the IC50 runs as follows: under setting [1], 6.31 µM; under setting [2], 126 µM.

As for `CCOc1ccc(-c2cc(C)nc([C@@H]3CC[C@@]4(CCN(C)C4=O)N3)c2)cc1` [Example 88, (2S,5S)-2-[4-(4-Ethoxyphenyl)-6-methyl-2-pyridyl]-7-methyl-1,7-diazaspiro[4.4]nonan-6-one hydrochloride], the IC50 runs as follows: under setting [1], 31.6 µM; under setting [2], 316 µM.

For the compound `CCOc1ccc(-c2cc(C)nc([C@H]3CC[C@@]4(CCN(C)C4=O)N3)c2)cc1` [Example 89, (3R,5S)-3-[4-(4-Ethoxyphenyl)-6-methyl-2-pyridyl]-8-methyl-4,8-diazaspiro[4.4]nonan-9-one hydrochloride], the IC50 under setting [1] is 3.16 µM and the IC50 under setting [2] is 50.1 µM.

On to `COc1cc(C(F)(F)F)ccc1-c1cc(C)nc([C@H]2CC[C@]3(CCN(C)C3=O)N2)c1` [Example 90, (3R,5R)-3-[4-[2-Methoxy-4-(trifluoromethyl)phenyl]-6-methyl-2-pyridyl]-8-methyl-4,8-diazaspiro[4.4]nonan-9-one hydrochloride], for which the IC50 is, setting by setting: under setting [1], 0.316 µM; under setting [2], 6.31 µM.

Regarding `COc1cc(C(F)(F)F)ccc1-c1cc(C)nc([C@@H]2CC[C@]3(CCN(C)C3=O)N2)c1` [Example 91, (3S,5R)-3-[4-[2-Methoxy-4-(trifluoromethyl)phenyl]-6-methyl-2-pyridyl]-8-methyl-4,8-diazaspiro[4.4]nonan-9-one hydrochloride], the IC50 is, setting by setting: under setting [1], 2 µM; under setting [2], 39.8 µM.

Regarding `CCOc1ccc(F)c(-c2cc(C)nc([C@@H]3CC[C@@]4(CCN(C)C4=O)N3)c2)c1` [Example 92, (2S,5S)-2-[4-(5-Ethoxy-2-fluoro-phenyl)-6-methyl-pyridin-2-yl]-7-methyl-1,7-diaza-spiro[4.4]nonan-6-one hydrochloride], the IC50 was 2.51 µM under setting [1] and 39.8 µM under setting [2].

With `CCOc1ccc(F)c(-c2cc(C)nc([C@H]3CC[C@@]4(CCN(C)C4=O)N3)c2)c1` [Example 93, (2R,5S)-2-[4-(5-Ethoxy-2-fluoro-phenyl)-6-methyl-pyridin-2-yl]-7-methyl-1,7-diaza-spiro[4.4]nonan-6-one hydrochloride], the IC50 runs as follows: under setting [1], 3.98 µM; under setting [2], 39.8 µM.

Turning to `Cc1cc(-c2ccc(C(F)(F)F)cc2)cc([C@H]2CC[C@@]3(CCNC3=O)N2)n1` [Example 94, (2R,5S)-2-[6-Methyl-4-[4-(trifluoromethyl)phenyl]-2-pyridyl]-1,7-diazaspiro[4.4]nonan-6-one hydrochloride], the IC50 under setting [1] is 0.2 µM and the IC50 under setting [2] was 3.98 µM.

Consider `Cc1cc(-c2ccc(C(F)(F)F)cc2)cc([C@@H]2CC[C@]3(CCNC3=O)N2)n1` [Example 95, (2S,5R)-2-[6-Methyl-4-[4-(trifluoromethyl)phenyl]-2-pyridyl]-1,7-diazaspiro[4.4]nonan-6-one hydrochloride], for which the IC50 is 12.6 µM under setting [1] and 100 µM under setting [2].

Take `Cc1cc(-c2ccc(C(F)(F)F)cc2)cc([C@H]2CC[C@]3(CCNC3=O)N2)n1` [Example 96, (2R,5R)-2-[6-Methyl-4-[4-(trifluoromethyl)phenyl]-2-pyridyl]-1,7-diazaspiro[4.4]nonan-6-one hydrochloride]: the IC50 was 3.16 µM under setting [1] and 20 µM under setting [2].
